Target: T1, cIAP2-BIR3 (Homo sapiens, UniProt Q13489)
T1 construct: gene BIRC3; BIR3 domain, residues 245-357 as printed (jointly with cIAP1), C-terminal 6xHis-tag, pET21(b), E. coli BL21(DE3)
Test: fluorescence polarization displacement of fluorescent probe FITC-SMAC
Details: read-out: Fluorescence Binding Assays IC50 [nM] / cIAP2-BIR3
Text: fluorescence polarization displacement of fluorescent probe FITC-SMAC on cIAP2-BIR3

T1 sequence (Q13489 245-357): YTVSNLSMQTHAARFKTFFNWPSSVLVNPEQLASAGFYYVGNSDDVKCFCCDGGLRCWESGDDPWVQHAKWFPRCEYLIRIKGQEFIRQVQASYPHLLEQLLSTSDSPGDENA

- IC50: 1.9 ± 0.9 nM
SMILES: CC[C@H](NC)C(=O)N[C@@H]1C(=O)N2[C@@H](CC[C@@H]1CO)CC[C@H]2C(=O)N[C@@H](c1ccccc1)c1cn(CCCCc2ccc(CCCCn3cc([C@@H](NC(=O)[C@@H]4CC[C@@H]5CC[C@H](CO)[C@H](NC(=O)[C@H](CC)NC)C(=O)N54)c4ccccc4)nn3)cc2)nn1 [9a]
